This is an account of results in patent US9629830B2, “EphA4 inhibitors as neuroprotective agents” (The Hong Kong University of Science and Technology, priority 2013, dated 2017).

Entries after “also recorded” stand apart in the source; their conditions may differ.

In the first experiment the target is T1, EphA4 (Rattus norvegicus, UniProt D3ZZK3).
T1 construct: endogenous in cells; host or cells: primary rat cortical neurons (A5), primary rat hippocampal neurons (A7)
T1 sequence (D3ZZK3 20-986): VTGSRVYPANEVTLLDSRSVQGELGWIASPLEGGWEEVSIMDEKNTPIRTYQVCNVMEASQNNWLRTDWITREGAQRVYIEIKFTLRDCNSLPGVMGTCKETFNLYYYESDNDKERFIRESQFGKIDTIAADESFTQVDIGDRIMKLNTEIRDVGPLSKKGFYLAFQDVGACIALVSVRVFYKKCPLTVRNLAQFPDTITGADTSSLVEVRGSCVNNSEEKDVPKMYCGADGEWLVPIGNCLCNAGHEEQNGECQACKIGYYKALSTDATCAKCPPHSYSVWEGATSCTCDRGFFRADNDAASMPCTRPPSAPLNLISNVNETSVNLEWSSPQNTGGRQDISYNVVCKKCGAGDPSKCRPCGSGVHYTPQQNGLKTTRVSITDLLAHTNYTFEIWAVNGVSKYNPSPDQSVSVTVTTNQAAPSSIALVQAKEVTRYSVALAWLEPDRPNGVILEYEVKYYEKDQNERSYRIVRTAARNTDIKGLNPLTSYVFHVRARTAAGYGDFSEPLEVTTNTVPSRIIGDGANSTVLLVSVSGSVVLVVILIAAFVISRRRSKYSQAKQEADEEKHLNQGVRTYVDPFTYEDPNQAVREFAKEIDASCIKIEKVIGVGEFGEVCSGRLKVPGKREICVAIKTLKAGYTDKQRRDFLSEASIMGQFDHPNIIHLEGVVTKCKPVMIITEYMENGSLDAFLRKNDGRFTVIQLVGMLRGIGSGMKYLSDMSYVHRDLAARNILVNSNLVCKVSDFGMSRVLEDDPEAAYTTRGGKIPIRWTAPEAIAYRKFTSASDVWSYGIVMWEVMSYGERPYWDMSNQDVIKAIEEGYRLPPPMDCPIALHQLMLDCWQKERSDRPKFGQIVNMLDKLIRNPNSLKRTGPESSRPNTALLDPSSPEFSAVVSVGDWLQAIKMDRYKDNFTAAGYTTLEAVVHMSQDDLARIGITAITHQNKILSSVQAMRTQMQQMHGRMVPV
Kind of experiment: Ephrin-A1-induced EphA4 cluster assay in cultured hippocampal neurons. It counts as cell-based. As to conditions: 30 μM. As to the method: For EphA4 clustering, neurons were stained with anti-EphA4 and anti-Tau-1 antibodies. For the growth cone collapse assay, neurons were stained with Alexa Fluor 555-conjugated phalloidin (Molecular Probes) for filamentous actin and anti-Tau-1 antibody for axons. Collapsed growth cones were scored in a double-blinded manner. The experiments were repeated at least 3 times, and >50 neurons were analyzed for each experiment. Data are presented as mean±SEM.
Rat hippocampal neurons were seeded on 48-well plates coated with poly-D-lysine (50 μg/mL) at 6000 cells per well. Neurons were incubated with Neurobasal medium (Invitrogen) supplemented with 2% B27 (Invitrogen). […] Neurons were then immunostained with anti-EphA4 and anti-Tau-1 antibodies. The cellular imaging and quantification of EphA4 clusters was performed using IN Cell Analyzer 6000 high content assay system (GE Healthcare). EphA4 clusters were quantified by calculating the proportion of total area of EphA4 clusters on axons against Tau positive area. Statistical analysis was performed with one-way ANOVA followed by Newman-Keuls Multiple Comparison Test (Prism 5 GraphPad Software).
As to `CC[C@H]1CN2CC[C@]3(C(=O)N(CCCCCBr)c4ccccc43)[C@@H]2C[C@@H]1/C(=C\OC)C(=O)OC` [RHY-23], the “potency on EphA4 inhibition (EphA4 clusters) compared to Rhy (words)” value was “higher potency on EphA4 inhibition”. Still for that read-out and setting: next, `CCC1CN2CCC3(C(=O)N(CCCCCCBr)c4ccccc43)C2CC1C(=COC)C(=O)OC` (centres unmarked) [RHY-27]: “higher potency on EphA4 inhibition”; `CCC1CN2CCC3(C(=O)N(CCCCCCCCCBr)c4ccccc43)C2CC1C(=COC)C(=O)OC` (centres unmarked) [RHY-31]: “higher potency on EphA4 inhibition”; `CCC1CN2CCC3(C(=O)N(CCCCCCCCBr)c4ccccc43)C2CC1C(=COC)C(=O)OC` (centres unmarked) [RHY-34]: “higher potency on EphA4 inhibition”. The same measure, in the same setting: with `CCC1CN2CCC3(C(=O)N(CCCCCCCBr)c4ccccc43)C2CC1C(=COC)C(=O)OC` (centres unmarked) [RHY-35] the entry was “higher potency on EphA4 inhibition”. On the same count and under the same terms, with `CC[C@H]1CN2CC[C@]3(C(=O)N(CCCCCCCCOc4ccc(OC)c(OC)c4)c4ccccc43)[C@@H]2C[C@@H]1/C(=C\OC)C(=O)OC` [RHY-37] the entry was “more potent effect on EphA4 inhibition than Rhy”; with `CCC1CN2CCC3(C(=O)N(CCCCCCOc4ccc(OC)c(OC)c4)c4ccccc43)C2CC1C(=COC)C(=O)OC` (centres unmarked) [RHY-39], “more potent effect on EphA4 inhibition than Rhy”; with `CCC1CN2CCC3(C(=O)N(CCCCCCOC(=O)c4cc(OC)ccc4[N+](=O)[O-])c4ccccc43)C2CC1C(=COC)C(=O)OC` (centres unmarked) [RHY-40], “more potent; also recorded: higher potency on EphA4 inhibition than Rhy”. Take `CC[C@H]1CN2CC[C@]3(C(=O)N(CCCCCCOc4ccc(OCc5ccccc5)cc4)c4ccccc43)[C@@H]2C[C@@H]1/C(=C\OC)C(=O)OC` [RHY-42]: the “potency on EphA4 inhibition (EphA4 clusters) compared to Rhy (words)” value is listed as “higher potency on EphA4 inhibition”. On the same count and under the same terms, with `CCC1CN2CCC3(C(=O)N(CCCCCCCOc4ccc(OC)c(OC)c4)c4ccccc43)C2CC1C(=COC)C(=O)OC` (centres unmarked) [RHY-43] the entry was “more potent effect on EphA4 inhibition than Rhy”; with `CCC1CN2CCC3(C(=O)N(CCCCCCCOc4ccc(OCc5ccccc5)cc4)c4ccccc43)C2CC1C(=COC)C(=O)OC` (centres unmarked) [RHY-44], “higher potency on EphA4 inhibition”. Same read-out and setting: next, `CC[C@H]1CN2CC[C@]3(C(=O)N(CCCCCCCOC(=O)c4cc(OC)ccc4[N+](=O)[O-])c4ccccc43)[C@@H]2C[C@@H]1/C(=C\OC)C(=O)OC` [RHY-45]: “more potent; also recorded: higher potency on EphA4 inhibition than Rhy”; `CC[C@H]1CN2CC[C@]3(C(=O)N(CCCCCCCOc4ccc(O)cc4)c4ccccc43)[C@@H]2C[C@@H]1/C(=C\OC)C(=O)OC` [RHY-48]: “comparable potency to Rhy”; `CCC1CN2CCC3(C(=O)N(CCCCCCCCOc4ccc(OCc5ccccc5)cc4)c4ccccc43)C2CC1C(=COC)C(=O)OC` (centres unmarked) [RHY-49]: “higher potency on EphA4 inhibition”. Same read-out and setting: with `CC[C@H]1CN2CC[C@]3(C(=O)N(CCCCCCCCOC(=O)c4cc(OC)ccc4[N+](=O)[O-])c4ccccc43)[C@@H]2C[C@@H]1/C(=C\OC)C(=O)OC` [RHY-50] the entry was “more potent; also recorded: higher potency on EphA4 inhibition than Rhy”; with `CCC1CN2CCC3(C(=O)N(CCCCCCCCOC(=O)c4ccc(Br)cc4I)c4ccccc43)C2CC1C(=COC)C(=O)OC` (centres unmarked) [RHY-52], “More Potent Effect on EphA4 Inhibition than Rhy”. For the molecule `CCC1CN2CCC3(C(=O)N(CCCCCCCCOc4ccc(O)cc4)c4ccccc43)C2CC1C(=COC)C(=O)OC` (centres unmarked) [RHY-54], the “potency on EphA4 inhibition (EphA4 clusters) compared to Rhy (words)” value is on record as “significantly more potent than Rhy; also recorded: more potent effect on EphA4 inhibition than Rhy”. Still for that read-out and setting: with `CCC1CN2CCC3(C(=O)N(CCCCCCCCCOc4ccc(OCc5ccccc5)cc4)c4ccccc43)C2CC1C(=COC)C(=O)OC` (centres unmarked) [RHY-55] the entry was “higher potency on EphA4 inhibition”. Turning to `CCC1CN2CCC3(C(=O)N(CCCCCCCCCOC(=O)C=Cc4ccc(OC)cc4)c4ccccc43)C2CC1C(=COC)C(=O)OC` (centres unmarked) [RHY-59], the “potency on EphA4 inhibition (EphA4 clusters) compared to Rhy (words)” value is reported as “more potent; also recorded: higher potency on EphA4 inhibition than Rhy”.

Turning to `CCC1CN2CCC3(C(=O)N(CCCCCCCCCOc4ccc(O)cc4)c4ccccc43)C2CC1C(=COC)C(=O)OC` (centres unmarked) [RHY-60], the “potency on EphA4 inhibition (EphA4 clusters) compared to Rhy (words)” value was “more potent effect on EphA4 inhibition than Rhy”.

The experiment is the same for the next values; noted with them: 30 μM, 20 min pretreatment, then ephrin-A1 40 min; some sentences add 'when compared to Rhy'.
On to `CC[C@H]1CN2CC[C@]3(C(=O)N(CCCCCCCCCl)c4ccccc43)[C@@H]2C[C@@H]1/C(=C\OC)C(=O)OC` [RHY-26], for which the “reduction of ephrin-A1-induced EphA4 clustering” value is given as about 80%.

The experiment is the same for the next values; noted with them: 30 μM; listed as RHY60.
Consider `CCC1CN2CCC3(C(=O)N(CCCCCCCCCOc4ccc(O)cc4)c4ccccc43)C2CC1C(=COC)C(=O)OC` (centres unmarked) [RHY-60], for which the “potency on EphA4 inhibition (EphA4 clusters) compared to Rhy (words)” value is recorded as “significantly more potent than Rhy”.

Staying with this experiment, now noted: 50 μM.
In the case of `CCC1CN2CCC3(C(=O)N(CC=Cc4ccccc4)c4ccccc43)C2CC1C(=COC)C(=O)OC` (centres unmarked) [RHY-9], the “inhibitory effect on EphA4 cluster formation” value is “most significant” and the “potency on EphA4 inhibition (EphA4 clusters) compared to Rhy (words)” value was “significantly reduced the EphA4 clusters compared to Rhy”. Consider `CCC1CN2CCC3(C(=O)N(Cc4ccccc4-c4ccccc4)c4ccccc43)C2CC1C(=COC)C(=O)OC` (centres unmarked) [RHY-10], for which the “inhibitory effect on EphA4 cluster formation” value is “most significant” and the “potency on EphA4 inhibition (EphA4 clusters) compared to Rhy (words)” value is reported as “significantly reduced the EphA4 clusters compared to Rhy”. The matching figures for `C=CCN1C(=O)C2(CCN3CC(CC)C(C(=COC)C(=O)OC)CC32)c2ccccc21` (centres unmarked) [RHY-17]: “most significant” and “significantly reduced the EphA4 clusters compared to Rhy”. As to `CCC1CN2CCC3(C(=O)N(Cc4cccc(Cl)c4)c4ccccc43)C2CC1C(=COC)C(=O)OC` (centres unmarked) [RHY-19], the “inhibitory effect on EphA4 cluster formation” value is reported as “most significant” and the “potency on EphA4 inhibition (EphA4 clusters) compared to Rhy (words)” value is “significantly reduced the EphA4 clusters compared to Rhy”. For `CCC1CN2CCC3(C(=O)N(CC(=O)c4ccc(OC)cc4)c4ccccc43)C2CC1C(=COC)C(=O)OC` (centres unmarked) [RHY-28], in that order: “most significant” and “significantly reduced the EphA4 clusters compared to Rhy”. With `CCC1CN2CCC3(C(=O)N(CCCCCCCCCNCCCCCCN)c4ccccc43)C2CC1C(=COC)C(=O)OC` (centres unmarked) [RHY-32], the “potency on EphA4 inhibition (EphA4 clusters) compared to Rhy (words)” value is recorded as “higher potency on EphA4 inhibition”. As to `CCC1CN2CCC3(C(=O)N(CCCCCCOC(=O)c4ccc(OC)c(OC)c4)c4ccccc43)C2CC1C(=COC)C(=O)OC` (centres unmarked) [RHY-33], the “potency on EphA4 inhibition (EphA4 clusters) compared to Rhy (words)” value was “comparable potency as Rhy”. On the same count and under the same terms, with `CC[C@H]1CN2CC[C@]3(C(=O)N(CCCCCCCCOC(=O)c4ccc(OC)c(OC)c4)c4ccccc43)[C@@H]2C[C@@H]1/C(=C\OC)C(=O)OC` [RHY-36] the entry was “more potent activity than Rhy; also recorded: more potent effect on EphA4 inhibition than Rhy”; with `CCC1CN2CCC3(C(=O)N(CCCCCCCOC(=O)c4ccc(OC)c(OC)c4)c4ccccc43)C2CC1C(=COC)C(=O)OC` (centres unmarked) [RHY-38], “more potent activity than Rhy; also recorded: more potent effect on EphA4 inhibition than Rhy”; with `CCC1CN2CCC3(C(=O)N(CCCCCCNCCN4CCCC4)c4ccccc43)C2CC1C(=COC)C(=O)OC` (centres unmarked) [RHY-41], “higher potency on EphA4 inhibition”. Same read-out and setting: next, `CC[C@H]1CN2CC[C@]3(C(=O)N(CCCCCCCNCCN4CCCC4)c4ccccc43)[C@@H]2C[C@@H]1/C(=C\OC)C(=O)OC` [RHY-46]: “higher potency on EphA4 inhibition”; `CCC1CN2CCC3(C(=O)N(CCCCCCCNCCCn4ccnc4)c4ccccc43)C2CC1C(=COC)C(=O)OC` (centres unmarked) [RHY-47]: “higher potency on EphA4 inhibition”.

Turning to `CCC1CN2CCC3(C(=O)N(CCCCCCCCCOC(=O)c4ccc(OC)c(OC)c4)c4ccccc43)C2CC1C(=COC)C(=O)OC` (centres unmarked) [RHY-57], the “potency on EphA4 inhibition (EphA4 clusters) compared to Rhy (words)” value is “more potent activity than Rhy; also recorded: more potent effect on EphA4 inhibition than Rhy”.

The experiment is the same for the next values; noted with them: dose-dependent experiment, FIG. 17.
Consider `CC[C@H]1CN2CC[C@]3(C(=O)N(CCCCCCCCCl)c4ccccc43)[C@@H]2C[C@@H]1/C(=C\OC)C(=O)OC` [RHY-26], for which the “inhibitory effect on EphA4 clusters (potency) compared to Rhy” value amounted to 5 fold. With `CC[C@H]1CN2CC[C@]3(C(=O)N(CCCCCCCCOc4ccc(OC)c(OC)c4)c4ccccc43)[C@@H]2C[C@@H]1/C(=C\OC)C(=O)OC` [RHY-37], the “inhibitory effect on EphA4 clusters (potency) compared to Rhy” value is 12 fold.

The same experiment, now with this note: same assay system; no data given.
With `CCC1CN2CCC3(C(=O)N(CCCCCCCCNCCN4CCCC4)c4ccccc43)C2CC1C(=COC)C(=O)OC` (centres unmarked) [RHY-53], the “potency as EphA4 inhibitor” value is “tested and verified”. The same measure, in the same setting: next, `CCC1CN2CCC3(C(=O)N(CCCCl)c4ccccc43)C2CC1C(=COC)C(=O)OC` (centres unmarked) [RHY-61]: “tested and verified”; `CCC1CN2CCC3(C(=O)N(CCCCCCCCCCl)c4ccccc43)C2CC1C(=COC)C(=O)OC` (centres unmarked) [RHY-62]: “tested and verified”; `CCC1CN2CCC3(C(=O)N(CCCCCCCl)c4ccccc43)C2CC1C(=COC)C(=O)OC` (centres unmarked) [RHY-63]: “tested and verified”. On the same count and under the same terms, with `CCC1CN2CCC3(C(=O)N(CCCCCCCCl)c4ccccc43)C2CC1C(=COC)C(=O)OC` (centres unmarked) [RHY-64] the entry was “tested and verified”.
